Laboratory results from US20250270180A1, “MEK INHIBITORS AND THERAPEUTIC USES THEREOF” (Immuneering Corporation, priority 2020, published 2025).

How the values were obtained:
[1] = test system: A549 CRAF BP (MEK phosphorylation); assay: A549-CRAF BP 100 nM, 2 h (pMEK); type: cell-based; details: Homo sapiens, A549, 2 h, phospho:total ratio normalized to DMSO control
Protocol: (§1) A549 or […] cells were treated in duplicate for two hours with compounds at varying concentrations. After two hours, the cells were lysed, snap frozen, and stored at −80° C. After storage, the lysate was quantified with the Bradford assay. Before the lysates were prepared to run on the Jess, the lysates were diluted to 1 mg/mL for pERK analysis and 1.5 mg/mL pMEK analysis using quantitative Western blotting. ERK and MEK phosphorylation levels were estimated by taking the ratio of phospho-protein to total protein and normalizing to the DMSO control. The results of this study are described in Tables 14-16.

A549 pERK = assay: A549-pERK, 2 h (quantitative Western, Jess); type: cell-based; details: Homo sapiens, phospho:total ratio normalized to DMSO control
Protocol: as §1

Row | Compound | activity at 0.1 µM [1] [%] | activity at 0.01 µM (A549 pERK; A549, 2 h, 10 nM) [%] | activity at 10 µM (A549 pERK; A549, 2 h) [%] | activity at 0.01 µM (A549 pERK; A549, 10 nM) [%]
1 | CNS(=O)(=O)Nc1cccc(Cc2c(CNCC(F)(F)F)c3ccc(OC(=O)N(C)C)cc3oc2=O)c1F [Compound 75] | 66.5 | – | – | –
2 | CNS(=O)(=O)Nc1cccc(Cc2c(CN3CCNCC3)c3cc(Cl)c(OC(=O)N(C)C)cc3oc2=O)c1F [Compound 21] | 47.9 | 20.4 | – | –
3 | CNS(=O)(=O)Nc1nccc(Cc2c(CN(C)C)c3cc(F)c(OC(=O)N(C)C)cc3oc2=O)c1F [Compound 140] | 70.3 | 65 | – | –
4 | Cc1c(Cc2cccc(NS(=O)(=O)C3CC3)c2F)c(=O)oc2cc(OC(=O)N(C)C)ccc12 [Compound 113] | 48 | 24.7 | – | –
5 | Cc1c(Cc2cccc(NS(=O)(=O)C3CCC3)c2F)c(=O)oc2cc(OC(=O)N(C)C)ccc12 [Compound 118] | 39.1 | 21.1 | – | –
6 | CCS(=O)(=O)Nc1cccc(Cc2c(CN3CCNCC3)c3cc(Cl)c(OC(=O)N(C)C)cc3oc2=O)c1F [Compound 147] | 46.4 | 21.7 | – | –
7 | CCS(=O)(=O)Nc1cccc(Cc2c(CN(C)C)c3cc(Cl)c(OC(=O)N(C)C)cc3oc2=O)c1F [Compound 132] | 57.8 | 62.6 | – | –
8 | CNS(=O)(=O)Nc1cccc(Cc2c(CN(C)c3ccc(Cl)cc3)c3ccc(OC(=O)N(C)C)cc3oc2=O)c1F [Compound 97] | 52.1 | 56.5 | – | –
9 | CNS(=O)(=O)Nc1cccc(Cc2c(CN3CC(C)(C)C3)c3ccc(OC(=O)N(C)C)cc3oc2=O)c1F [Compound 143] | – | 104 | – | –
10 | CN(C)C(=O)Oc1ccc2c(CN3CCNCC3)c(Cc3ccnc(NS(=O)(=O)C4CC4)c3F)c(=O)oc2c1 [Compound 150] | 90.2 | 47.4 | – | –
11 | CCN(CC)Cc1c(Cc2cccc(NS(=O)(=O)NC)c2F)c(=O)oc2cc(OC(=O)N(C)C)ccc12 [Compound 73] | 33.9 | 77.7 | – | –
12 | CNS(=O)(=O)Nc1cccc(Cc2c(CNCc3ccncc3)c3ccc(OC(=O)N(C)C)cc3oc2=O)c1F [Compound 29] | – | 96 | – | –
13 | CNS(=O)(=O)Nc1cccc(Cc2c(CN(C)C)c3ccc(OC(=O)N4CCC4)cc3oc2=O)c1F [Compound 128] | 37.7 | 66.3 | – | –
14 | CNS(=O)(=O)Nc1nccc(Cc2c(C)c3cc(C)c(OC(=O)N(C)C)cc3oc2=O)c1F [Compound 110] | 56.6 | 5.92 | – | –
15 | CNS(=O)(=O)Nc1cccc(Cc2c(CNC(N)=O)c3ccc(OC(=O)N(C)C)cc3oc2=O)c1F [Compound 105] | – | – | 7.39 | –
16 | CNS(=O)(=O)Nc1cccc(Cc2c(CN3CC(Cl)C3)c3ccc(OC(=O)N(C)C)cc3oc2=O)c1F [Compound 145] | – | 104 | – | –
17 | Cc1c(Cc2ccnc(NS(=O)(=O)C3CC3)c2F)c(=O)oc2cc(OC(=O)N(C)C)ccc12 [Compound 112] | 52.9 | 46.3 | – | –
18 | CNS(=O)(=O)Nc1cccc(Cc2c(CN(C)C3CC3)c3ccc(OC(=O)N(C)C)cc3oc2=O)c1F [Compound 82] | 72.3 | 64.9 | – | –
19 | CNS(=O)(=O)Nc1cccc(Cc2c(CN3CC(C#N)C3)c3ccc(OC(=O)N(C)C)cc3oc2=O)c1F [Compound 172] | – | 111 | – | –

Row | Compound | activity at 0.1 µM [1] [%] | activity at 0.01 µM (A549 pERK; A549, 2 h, 10 nM) [%] | activity at 10 µM (A549 pERK; A549, 2 h) [%] | activity at 0.01 µM (A549 pERK; A549, 10 nM) [%]
20 | CNS(=O)(=O)Nc1cccc(Cc2c(CNc3ccccc3)c3ccc(OC(=O)N(C)C)cc3oc2=O)c1F [Compound 30] | – | 54.3 | – | –
21 | CNS(=O)(=O)Nc1cccc(Cc2c(CN3CCN(C(C)C)CC3)c3ccc(OC(=O)N(C)C)cc3oc2=O)c1F [Compound 62] | – | 73 | – | –
22 | CNS(=O)(=O)Nc1cccc(Cc2c(CN3CCN(S(C)(=O)=O)CC3)c3ccc(OC(=O)N(C)C)cc3oc2=O)c1F [Compound 68] | – | 68.9 | – | –
23 | CNS(=O)(=O)Nc1cccc(Cc2c(CN(C)C)c3ccc(Oc4ncccn4)cc3oc2=O)c1F [Compound 129] | – | – | – | 92.2
24 | CNS(=O)(=O)Nc1cccc(Cc2c(CN(C)C)c3ccc(OC(=S)N(C)C)cc3oc2=O)c1F [Compound 204] | – | – | – | 83.4
25 | CNS(=O)(=O)Nc1cccc(Cc2c(CN3CC(OC)C3)c3ccc(OC(=O)N(C)C)cc3oc2=O)c1F [Compound 74] | 59.2 | 75.3 | – | –
26 | CNS(=O)(=O)Nc1cccc(Cc2c(CN3CCOCC3=O)c3ccc(OC(=O)N(C)C)cc3oc2=O)c1F [Compound 181] | – | 100 | 22.2 | –
27 | CNS(=O)(=O)Nc1cccc(Cc2c(CNc3ccn(C)n3)c3ccc(OC(=O)N(C)C)cc3oc2=O)c1F [Compound 89] | – | 83.7 | – | –
28 | CNS(=O)(=O)Nc1cccc(Cc2c(CCNCC3CC3)c3ccc(OC(=O)N(C)C)cc3oc2=O)c1F [Compound 186] | – | 80.1 | 0.74 | –
29 | CNS(=O)(=O)Nc1cccc(Cc2c(CC(=O)NC3CCOCC3)c3ccc(OC(=O)N(C)C)cc3oc2=O)c1F [Compound 215] | – | 100 | 11.8 | –
30 | CNS(=O)(=O)Nc1cccc(Cc2c(CNC(=O)c3nn[nH]n3)c3ccc(OC(=O)N(C)C)cc3oc2=O)c1F [Compound 213] | – | 100 | 70.1 | –
31 | CNS(=O)(=O)Nc1cccc(Cc2c(CN3CCC4(CN(C)C4)C3)c3ccc(OC(=O)N(C)C)cc3oc2=O)c1F [Compound 159] | – | 82.7 | – | –
32 | CNS(=O)(=O)Nc1cccc(Cc2c(CNCC(=O)N(C)c3ccccc3)c3ccc(OC(=O)N(C)C)cc3oc2=O)c1F [Compound 220] | – | 109 | 4.28 | –
33 | CNS(=O)(=O)Nc1nccc(Cc2c(CN3CCNCC3)c3ccc(Oc4ncccn4)cc3oc2=O)c1F [Compound 104] | – | – | – | 77.3
34 | CCC(=O)NCc1c(Cc2cccc(NS(=O)(=O)NC)c2F)c(=O)oc2cc(OC(=O)N(C)C)ccc12 [Compound 207] | – | 97.4 | 11.3 | –
35 | CCS(=O)(=O)Nc1cccc(Cc2c(CN(C)C)c3ccc(OC(=O)N(C)C)cc3oc2=O)c1F [Compound 120] | – | 77.2 | – | –
36 | CNS(=O)(=O)Nc1cccc(Cc2c(CC(=O)N(C)CC#N)c3ccc(OC(=O)N(C)C)cc3oc2=O)c1F [Compound 198] | – | 109 | – | –
37 | CNS(=O)(=O)Nc1cccc(Cc2c(CNCC(=O)N(C)CC#N)c3ccc(OC(=O)N(C)C)cc3oc2=O)c1F [Compound 217] | – | 96.7 | 11.2 | –
38 | CNS(=O)(=O)Nc1cccc(Cc2c(CC(=O)N3CC(OC)C3)c3ccc(OC(=O)N(C)C)cc3oc2=O)c1F [Compound 216] | – | 89.5 | 4.51 | –

Row | Compound | activity at 0.1 µM [1] [%] | activity at 0.01 µM (A549 pERK; A549, 2 h, 10 nM) [%] | activity at 10 µM (A549 pERK; A549, 2 h) [%] | activity at 0.01 µM (A549 pERK; A549, 10 nM) [%]
39 | CNS(=O)(=O)Nc1cccc(Cc2c(CN3CCN(C4CC4)CC3)c3ccc(OC(=O)N(C)C)cc3oc2=O)c1F [Compound 64] | – | 73 | – | –
40 | CNS(=O)(=O)Nc1cccc(Cc2c(CNCC(=O)O)c3cc(Cl)c(OC(=O)N(C)C)cc3oc2=O)c1F [Compound 133] | – | 88.1 | 23.4 | –
41 | CNS(=O)(=O)Nc1cccc(Cc2c(CNCCC(F)(F)F)c3ccc(OC(=O)N(C)C)cc3oc2=O)c1F [Compound 66] | – | 104 | – | –
42 | CCN1CCN(Cc2c(Cc3cccc(NS(=O)(=O)NC)c3F)c(=O)oc3cc(OC(=O)N(C)C)ccc23)CC1=O [Compound 69] | – | 101 | – | –
43 | CNS(=O)(=O)Nc1cccc(Cc2c(CNCc3cccc(C(F)(F)F)c3)c3ccc(OC(=O)N(C)C)cc3oc2=O)c1F [Compound 59] | – | 105 | – | –
44 | CNS(=O)(=O)Nc1cccc(Cc2c(CNc3ccn[nH]3)c3ccc(OC(=O)N(C)C)cc3oc2=O)c1F [Compound 31] | – | 66.7 | – | –
45 | CNS(=O)(=O)Nc1cccc(Cc2c(CC(=O)Nc3ccon3)c3ccc(OC(=O)N(C)C)cc3oc2=O)c1F [Compound 201] | – | 119 | – | –
46 | CNS(=O)(=O)Nc1cccc(Cc2c(CNc3cn[nH]c3)c3ccc(OC(=O)N(C)C)cc3oc2=O)c1F [Compound 92] | – | 93.8 | – | –
47 | CNS(=O)(=O)Nc1cccc(Cc2c(CNCC(=O)Nc3ccccc3)c3ccc(OC(=O)N(C)C)cc3oc2=O)c1F [Compound 223] | – | 119 | 3.04 | –
48 | CNS(=O)(=O)Nc1cccc(Cc2c(CN3CC4CC3CN4)c3ccc(OC(=O)N(C)C)cc3oc2=O)c1F (stereo not shown) [Compound 138] | – | 96.9 | – | –
49 | CNS(=O)(=O)Nc1cccc(Cc2c(CN3CCNC(=O)CC3)c3ccc(OC(=O)N(C)C)cc3oc2=O)c1F [Compound 158] | – | 80 | – | –
50 | CNS(=O)(=O)Nc1cccc(Cc2c(CN3CC(C)C3)c3ccc(OC(=O)N(C)C)cc3oc2=O)c1F [Compound 142] | – | 94.6 | – | –
51 | CNS(=O)(=O)Nc1cccc(Cc2c(CN(C)c3ccccc3Cl)c3ccc(OC(=O)N(C)C)cc3oc2=O)c1F [Compound 99] | – | 98.9 | – | –
52 | C#CCNC(=O)CNCc1c(Cc2cccc(NS(=O)(=O)NC)c2F)c(=O)oc2cc(OC(=O)N(C)C)ccc12 [Compound 218] | – | 113 | 9.46 | –
53 | CNS(=O)(=O)Nc1cccc(Cc2c(CN3CC(N)C3)c3ccc(OC(=O)N(C)C)cc3oc2=O)c1F [Compound 165] | – | 104 | – | –
54 | CNS(=O)(=O)Nc1nccc(Cc2c(CN(C)C)c3ccc(OC(=O)N(C)C)cc3oc2=O)c1F [Compound 124] | – | 94.6 | – | –
55 | CCN(C)Cc1c(Cc2cccc(NS(=O)(=O)CC)c2F)c(=O)oc2cc(OC(=O)N(C)C)c(Cl)cc12 [Compound 166] | – | 60.9 | – | –
56 | CNS(=O)(=O)Nc1cccc(Cc2c(CC(=O)N(C)C)c3ccc(OC(=O)N(C)C)cc3oc2=O)c1F [Compound 196] | – | 106 | – | –
57 | CNS(=O)(=O)Nc1cccc(Cc2c(CN(C)c3ccccc3)c3ccc(OC(=O)N(C)C)cc3oc2=O)c1F [Compound 79] | 45.2 | – | – | –
